Measured values: PubChem BioAssay (NCI)
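Dose response: 5 concentrations. Exposure: 48 h. Format: 96-well plates. Endpoint: linear interpolation; highest concentration if not reached. The concentration for 50% growth inhibition is given as GI50. TGI denotes the concentration required for complete inhibition of growth.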

Assays:
Assay in all cases: DTP human tumour cell line panel, 48 h
UO-31 renal = tested on: UO-31 renal
SN12C renal = tested on: SN12C renal
K-562 leukemia = tested on: K-562 leukemia
HOP-92 NSCLC = tested on: HOP-92 NSCLC
ACHN renal = tested on: ACHN renal
NCI-H522 lung = tested on: NCI-H522 lung
MOLT-4 leukemia = tested on: MOLT-4 leukemia
SNB-75 CNS = tested on: SNB-75 CNS
SNB-19 CNS = tested on: SNB-19 CNS
SF-268 CNS = tested on: SF-268 CNS
HCT-116 colon = tested on: HCT-116 colon
IGROV1 ovarian = tested on: IGROV1 ovarian
SK-OV-3 ovarian = tested on: SK-OV-3 ovarian
CAKI-1 renal = tested on: CAKI-1 renal
MDA-MB-435 = tested on: MDA-MB-435
NCI/ADR-RES ovarian = tested on: NCI/ADR-RES ovarian

SMILES	TGI (UO-31 renal) [µM]	TGI (SN12C renal) [µM]	TGI (K-562 leukemia) [µM]	TGI (HOP-92 NSCLC) [µM]	TGI (ACHN renal) [µM]	TGI (NCI-H522 lung) [µM]	TGI (MOLT-4 leukemia) [µM]	TGI (SNB-75 CNS) [µM]	TGI (SNB-19 CNS) [µM]	TGI (SF-268 CNS) [µM]	TGI (HCT-116 colon) [µM]	TGI (IGROV1 ovarian) [µM]	TGI (SK-OV-3 ovarian) [µM]	TGI (CAKI-1 renal) [µM]	TGI (MDA-MB-435) [µM]	TGI (NCI/ADR-RES ovarian) [µM]	GI50 (HOP-92 NSCLC) [µM]	GI50 (SNB-19 CNS) [µM]	GI50 (SF-268 CNS) [µM]	GI50 (NCI/ADR-RES ovarian) [µM]
O=C1c2ccccc2OP(=O)(OCC(F)(F)F)OC1(C(F)(F)F)C(F)(F)F (configuration not stated)	> 100	> 100	> 100	> 100	> 100	> 100	> 100	> 100	> 100	> 100	> 100	> 100	> 100	> 100						
CC(C)OCC1CC(CC(=O)Nc2nncs2)C(=O)O1 (configuration not stated)	> 100	> 100	> 100	> 100	> 100		> 100	> 100	> 100	> 100	> 100	> 100	> 100	> 100	> 100	> 100				
C=CCC1(OC(C)=O)C2OC(=O)C1(O)OCC2O (configuration not stated)	> 100	> 100	> 100		> 100	> 100	> 100	98.9	> 100	> 100	> 100	> 100	> 100	> 100	> 100	> 100				
Nc1nc(SCc2ccc([N+](=O)[O-])cc2)nc2c1ncn2C1OC(CO)C(O)C1O (configuration not stated)	> 100	> 100	> 100		> 100	> 100	> 100		> 100	> 100	> 100	> 100								
Cc1cc(N(CCC#N)CCC#N)ccc1/C(N=Nc1ccc(C(=O)O)cc1)=N\NC(=O)c1cc(Cl)ccc1O	68	> 100	> 100		> 100	35.9	> 100	53.5	55.9	42.3	> 100	59	64.5	> 100	> 100	> 100				
CCCCCCC(=O)O[C@H]1CC[C@H]2[C@@H]3CCC4C/C(=N/NC(=O)c5cccc6c(=O)c7ccccc7[nH]c56)C=C(C)[C@]4(C)[C@H]3CC[C@]12C (some centres not stated)	> 25	> 25	> 25	> 25	> 25		> 25	> 25	> 25	> 25	> 25	> 25	> 25	> 25	> 25	> 25				
COc1ccc(N=Cc2ccc(N(CCC#N)S(=O)(=O)c3ccccc3)cc2)cc1	> 100	> 100	> 100	> 100	> 100	> 100	> 100	> 100	> 100	> 100	> 100	> 100	> 100	> 100						
Cc1ccc(/C=C/c2nnc(N/N=C/c3ccc4c(c3)OCO4)[nH]c2=O)cc1	> 100	38.1	70.7		65.6	> 100	> 100	31.2	37.4	33.9	45.9	41.8	93.2	91.8	> 100	37.5				
O=S(Nc1ccccc1)c1cccc(Cl)c1 (configuration not stated)	> 100	> 100	> 100		> 100	> 100	> 100	> 100	> 100	> 100	> 100	> 100		> 100	> 100	> 100				
C=CCNC(=O)N(CCCC(NC(C)=O)C(=O)NCc1ccccc1)Cc1ccccc1 (configuration not stated)	> 100	> 100	> 100	> 100	> 100	> 100	> 100	> 100	> 100	> 100		> 100	> 100	> 100						
Cc1ccc(N2C(=O)CS/C2=C(\C#N)c2nc3ccccc3[nH]2)cc1	> 100	> 100	> 100	> 100	> 100	> 100	> 100	> 100	> 100	> 100	> 100	> 100		> 100						
O=C(c1ccc(Cl)cc1)N(C(=O)N1CCC(c2ccccc2)CC1)c1ccccc1	98.7	> 100	> 100		> 100		57.1	9.27	> 100	> 100	> 100	> 100	> 100	> 100	> 100	> 100				
Cc1ccc(N(C(=O)Nc2ccccc2)C2=NCC(C)S2)cc1C (configuration not stated)	80.7	32	> 100	43.3	> 100		> 10	56.4	> 100	69.8	46.5	89.8	> 100	> 10		52.4				
COc1cccc([C@H]2C/C(=N\NC(=O)C(=O)N[C@@H](C)c3ccccc3)c3ccccc3N2)c1	> 100	0.0898	0.0554	> 100	> 100				> 100	> 100	12		> 100	54.1		0.0535	0.422	0.0259	0.0912	< 0.01
CC(=O)OCC1OC(c2nc3ccccc3s2)=CC(OC(C)=O)C1OC(C)=O (configuration not stated)	> 100	> 100	> 100		> 100	> 100		> 100	> 100	> 100	> 100	> 100		> 100	> 100	> 100				
CN1c2ccccc2N(C(=O)c2ccc(Cl)cc2)C(CC(=O)O)c2cccn21 (configuration not stated)	> 100	> 100	> 100	> 100	> 100	> 100	> 100	> 100	> 100	> 100		> 100	> 100	> 100						
